Molecules are shown by their SMILES. Entries after “also recorded” stand apart in the source; their conditions may differ.

The test system of data set [1] is dengue virus. Nature of the data set: Antiviral activity in VPS34 knockout Huh7 cells. Type of data set: cell-based. To be noted: 5 μM compound, MOI 0.5, 24 hpi. The procedure:
FIG 5 Vandetanib and spautin-1 inhibit dengue maturation and egress in a VPS34-independent manner. […] Cells were pretreated for 1 h, infected for 1 h at an MOI of 0.5 PFU/cell, and posttreated for an additional 23 h. N = 4, one-way ANOVA with Dunnett’s multiple-comparison test. ns, not significant (P > 0.05); **, P < 0.01; ****, P < 0.0001. (C) Huh7 cells transfected with a luciferase-expressing RNA replicon were treated with 3 μM vandetanib (orange) or 1% DMSO vehicle control (black) for 1 h prior to transfection and up to 52 h posttransfection. Luciferase intensity was quantified as a measure of viral protein abundance. Luciferase intensity was shown as relative light units (RLU). The use of an RNA replicon that is directly transfected into cells reflects only translation and RNA replication steps of viral infection, not viral packaging or cell exit. N = 4, two-way ANOVA with Sikak’s multiple-comparison test. […] (D) VPS34 was not required for spautin-1 or vandetanib anti-dengue activity. Wild-type and VPS34 knockout Huh7 cells were treated with 5 μM spautin-1, 5 μM vandetanib, or DMSO. Cells were pretreated, infected at an MOI of 0.5, and posttreated as described above for panels A and B. At 24 hpi, cellular supernatant was collected and titered by plaque assay. N ≥ 3. One-way ANOVA with Dunnett’s multiple-comparison test; *, P < 0.05; **, P < 0.01; ***, P < 0.001; ****, P < 0.0001. […]

Data set [2] has as its system DENV2. Nature of the data set: Antiviral activity in DENV2-infected Huh7 cells, infectious virus in supernatant by plaque assay. Format: cell-based, dengue virus. To be noted: Dengue virus, Huh-7, DENV2-infected Huh7 cells.
The conditions of data set [3]: ref PubChem database, cited from earlier work.

For `COc1cc2c(Nc3ccc(Br)cc3F)ncnc2cc1OCC1CCN(C)CC1` [Vandetanib, vandetanib], in data set [1], the “Antiviral activity in VPS34 knockout cells” value is listed as “retained significant antiviral activity; also recorded: retained their ability to limit dengue virus egress”. In data set [2] (from dose-response curve fit, 24 hpi), this molecule showed an IC90 of 3600 nM. Further, in data set [2] (single infectious cycle, plaque assay at 24 hpi, read-out: IC50 of viral inhibition (infectious extracellular virus)), the 50% inhibitory concentration (IC50) stood at 1600 nM. In addition, in data set [3] (Oral, single dose), the 50% lethal dose (LD50) was > 1000 mg/kg. Further, the “Acute toxicity in words (Table S2)” value in data set [3] (healthy mice) is given as “only mildly toxic”.

The record behind these values is publication PMC7667029, “A Targeted Computational Screen of the SWEETLEAD Database Reveals FDA-Approved Compounds with Anti-Dengue Viral Activity” (mBio, 2020).
